Laboratory results from patent US8865894B2, “Oxazolidin-2-one compounds and uses thereof” (Novartis AG, priority 2012, dated 2014).
Where two headings read alike, the source gives them in different places.

Experiments:
[1] = molecular target: PI3Kgamma (Homo sapiens, UniProt P48736); assay: Biochemical PI3Kgamma (TR-FRET Adapta Universal Kinase Assay); conditions: mean of n measurements, read-out: PIK3g/ IC50
Description: Test compounds were dissolved in DMSO (10 mM) and transferred into 1.4 mL flat bottom or V-shaped Matrix tubes carrying a unique 2D matrix chip by individual Novartis compound hubs. The numbers of these chips were distinctively linked to Novartis Pharma Numbers. The stock solutions were stored at −20° C. if not used immediately. For the test procedure the vials were defrosted and identified by a scanner whereby a working sheet was generated that guided the subsequent working steps.
Compounds were either manually diluted in DMSO for individual experiments (96 wells enabling 10 cpds at 8 (single points) concentrations) as described in or prepared as described below if tested for profiling in 384-wells. This format enabled the assay of maximally 40 individual test compounds at 8 concentrations (single points) including 4 reference compounds. The dilution protocol included the production of “pre-dilution plates”, “master plates” and “assay plates”.
96 polypropylene well plates were used as pre-dilution plates. A total of 4 pre-dilution plates were prepared including 10 test compounds each on the plate positions A1-A10, one standard compound at A11 and one DMSO control at A12. Programs have been written to run these pipetting steps on the HamiltonSTAR robots.
100 μL of individual compound dilutions including standard compound and controls of the 4 “pre-dilution plates” were transferred into a 384 “master plate” including the following concentrations 1,820, 564, 182, 54.6, 18.2, 5.46, 1.82 and 0.546 μM, respectively in 90% DMSO.
Identical “assay plates” were then prepared by pipetting 50 nL each of compound dilutions of the “master plates” into 384-well “assay plates”. The compounds were mixed with 4.5 μL of assays components plus 4.5 μL enzyme corresponding to a 1:181 dilution enabling the final concentration of 10, 3.0, 1.0, 0.3, 0.1, 0.03, 0.01 and 0.003 μM, respectively. The preparation of the “master plates” was handled by the Matrix PlateMate Plus robot and replication of “assay plates” by the HummingBird robot.
The TR-FRET Adapta™ Universal Kinase Assay Kit was purchased from Invitrogen Corporation (Carlsbad/CA, USA) (Cat. No. PV5099). The kit contains the following reagents: Adapta Eu-anti-ADP Antibody (Europium labeled anti-ADP antibody in HEPES buffered saline, Cat. No. PV5097), Alexa Fluor® 647-labeled ADP tracer (Alexa Fluor® 647-labeled ADP tracer in HEPES buffered saline, Cat. No. PV5098), proprietary TR-FRET dilution buffer pH 7.5 (Cat. No. PV3574).
PIK3CD substrate Phosphatidylinositol was obtained from Invitrogen (vesicules consisting of 2 mM PI in 50 mM HEPES pH7.5; Cat. No. PV5371). PIK3CG substrate Phosphatidylinositol-4,5-bisphosphate (PIP(4,5)2 was obtained from Invitrogen (PIP2:PS large unilamellar vesicules consisting of 1 mM PIP2: 19 mM PS in 50 mM HEPES pH7.5, 3 mM MgCl2, 1 mM EGTA; Cat. No. PV5100).
Time-Resolved Fluorescence Resonance Energy Transfer (TR-FRET) is a technology based on energy transfer between two adjacent dyes, from an excited electron in one dye (the donor) to an electron of an adjacent dye (the acceptor) through resonance, then released as a photon. This energy transfer is detected by an increase in the fluorescence emission of the acceptor, and a decrease in the fluorescence emission of the donor. TR-FRET assays for protein kinases use a long-lifetime lanthanide Terbium or Europium chelates as the donor species which overcome interference from compound autofluorescence or light scatter from precipitated compounds, by introducing a delay after excitation by a flashlamp excitation source. Results are often expressed as a ratio of the intensities of the acceptor and donor fluorophores. The ratiometric nature of such a value corrects for differences in assay volumes between wells, as well as corrects for quenching effects due to colored compounds. The Adapta™ assay can be divided into two phases: a kinase reaction phase and an ADP detection phase. […]

[2] = molecular target: T1, mTOR (Mus musculus, UniProt Q9JLN9); assay: Cellular assay mTOR (phospho-T389 S6K1 SureFire in TSC1-/- MEF cells); type: cell-based
T1 construct: endogenous in cells; host or cells: TSC1-/- MEF (mouse embryo fibroblasts)
Excerpt: A cell based assay (384-well format) was developed for determination of compound effects on cellular mTOR kinase activity in MEF (mouse embryo fibroblasts) cells derived from mice lacking TSC1 (Tuberosclerosis Complex1) a potent suppressor of mTOR kinase activity. Due to lack of TSC1 the mTOR kinase is constitutively activated resulting in permanent phosphorylation of Thr 389 of S6 kinase 1 (S6K1) which is one of the downstream targets of mTOR.
Using a SureFire Kit that enables to determine the phosphorylation of Thr389 on the S6K1 an assay was developed, validated and implemented in the Alpha-Screen format that allows the quantitative determination of phospho-T389 of S6K1 in cell lysates. […] These were in agreement with those values obtained with the biochemical mTOR ATP-binding assay enabling a quantitative comparison of potency of mTOR inhibitors.
TSC1−/− MEFs cells (Kwiatkowski, D. J., Zhang, H., Bandura, J. L., Heiberger, K. M., Glogauer, M., el-Hashemite, N., and Onda, H. (2002) Hum. Mol. Genet. 11, 525-534) were cultured in DMEM high glucose medium supplemented with 10% FBS (Invitrogen), 2 mM Glutamine and 1% (w/v) Penicillin/Streptomycin at 37° C., 5% CO2.
The SureFire kit for determination of P70S6kinase phosphorylation was purchased from Perkin Elmer (p70S6K p-T389, #TGR70S50K) and the assay was performed according to the instructions of the supplier and according to the generic method for SureFire assays. Shortly, 5 μL cell lysate per well were transferred to 384-well white proxy-plates (for luminescent readout) and mixed with […] and […] (final volume: 12 μL). After 3 h incubation in the dark at RT luminescence was read with the Envision Reader (Perkin Elmer). Untreated cells were used as control (high control) and cells treated with 3 μM BEZ235 were used as low control. The assay window between the signals obtained for the high and the low controls were defined as 100% and compound effects were expressed as percent inhibition. IC50 values were calculated from the dose response curves by graphical extrapolation.

[3] = TSC1-/- MEF cells, read-out: mTOR S6K(T389)_TSC1ko/ IC50
[4] = second value / 3 of the 4 values / 3 of the 5 values as per footnote, read-out: mTOR S6K(T389)_TSC1ko IC50, further individual values (footnotes)

PI3Kgamma, sequence (P48736 whole entry, species assumed): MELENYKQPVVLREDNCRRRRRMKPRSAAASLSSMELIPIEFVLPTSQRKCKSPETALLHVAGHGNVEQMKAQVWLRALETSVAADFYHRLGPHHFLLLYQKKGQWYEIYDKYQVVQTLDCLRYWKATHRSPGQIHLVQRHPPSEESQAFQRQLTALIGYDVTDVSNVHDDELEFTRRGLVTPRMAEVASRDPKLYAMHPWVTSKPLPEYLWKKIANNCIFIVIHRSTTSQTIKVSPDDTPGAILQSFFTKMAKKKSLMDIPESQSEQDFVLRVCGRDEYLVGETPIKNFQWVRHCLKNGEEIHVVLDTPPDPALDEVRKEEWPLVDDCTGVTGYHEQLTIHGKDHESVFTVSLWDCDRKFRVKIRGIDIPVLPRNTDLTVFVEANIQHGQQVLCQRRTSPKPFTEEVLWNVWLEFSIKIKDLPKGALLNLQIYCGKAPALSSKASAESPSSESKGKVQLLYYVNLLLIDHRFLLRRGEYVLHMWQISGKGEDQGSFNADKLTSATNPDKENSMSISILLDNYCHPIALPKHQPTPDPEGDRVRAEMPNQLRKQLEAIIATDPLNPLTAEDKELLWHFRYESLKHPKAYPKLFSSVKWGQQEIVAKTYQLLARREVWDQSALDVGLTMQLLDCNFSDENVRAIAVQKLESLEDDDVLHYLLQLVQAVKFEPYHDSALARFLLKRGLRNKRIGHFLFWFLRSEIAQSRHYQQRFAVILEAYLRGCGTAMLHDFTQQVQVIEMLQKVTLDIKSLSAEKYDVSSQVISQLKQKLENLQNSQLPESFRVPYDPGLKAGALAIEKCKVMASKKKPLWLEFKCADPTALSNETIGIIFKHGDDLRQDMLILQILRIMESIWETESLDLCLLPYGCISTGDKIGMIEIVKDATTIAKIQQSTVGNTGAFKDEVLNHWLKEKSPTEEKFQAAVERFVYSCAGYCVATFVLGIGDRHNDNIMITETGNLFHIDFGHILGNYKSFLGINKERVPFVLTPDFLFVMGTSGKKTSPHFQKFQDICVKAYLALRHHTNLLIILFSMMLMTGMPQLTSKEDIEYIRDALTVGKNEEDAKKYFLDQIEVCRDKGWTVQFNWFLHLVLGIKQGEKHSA

| SMILES | IC50 [1] [nM] | IC50 [2, 3] [nM] | IC50 [2, 4] [nM] |
| --- | --- | --- | --- |
| CC1(CO)COC(=O)N1c1cc(-c2cnc(N)nc2C(F)(F)F)nc(N2CCOCC2)n1 (racemic) [Example 3, 3-(2′-amino-2-morpholino-4′-(trifluoromethyl)-4,5′-bipyrimidin-6-yl)-4-(hydroxymethyl)-4-methyloxazolidin-2-one] | 516 | 759 | – |
| Nc1ncc(-c2cc(N3C(=O)OC4C(O)CCC43)nc(N3CCOCC3)n2)c(C(F)(F)F)n1 (single isomer, unassigned) [Example 22B] | 410 | 2300 | – |
| C[C@@H](O)C[C@H]1OC(=O)N(c2cc(-c3cnc(N)nc3C(F)(F)F)nc(N3CCOCC3)n2)[C@H]1C (single isomer, unassigned) [Example 24] | 540 | 1830 | – |
| CC1(C)OC(=O)N(c2cc(-c3cnc(N)nc3C(F)(F)F)nc(N3CCOCC3)n2)[C@H]1CO [Example 2, (S)-3-(2′-Amino-2-morpholin-4-yl-4′-trifluoromethyl-[4,5′]bipyrimidinyl-6-yl)-4-hydroxymethyl-5,5-dimethyl-oxazolidin-2-one] | 348 | – | – |
| Nc1ncc(-c2cc(N3C(=O)OC[C@@H]3CCO)nc(N3CCOCC3)n2)c(C(F)(F)F)n1 [Example 9, (S)-3-(2′-Amino-2-morpholin-4-yl-4′-trifluoromethyl-[4,5′]bipyrimidinyl-6-yl)-4-(2-hydroxy-ethyl)-oxazolidin-2-one] | 1130 | 1260 | > 2270 |
| Nc1ncc(-c2cc(N3CCOC3=O)nc(N3CCOCC3)n2)c(C(F)(F)F)n1 [Example 11, 3-(2′-Amino-2-morpholin-4-yl-4′-trifluoromethyl-[4,5′]bipyrimidinyl-6-yl)-oxazolidin-2-one, reference compound] | 998 | 1410 | > 2270 |
| C[C@H]1OC(=O)N(c2cc(-c3cnc(N)nc3C(F)(F)F)nc(N3CCOCC3)n2)[C@H]1COC=O [Example 12, Formic acid (4S,5R)-3-(2′-amino-2-morpholin-4-yl-4′-trifluoromethyl-[4,5′]bipyrimidinyl-6-yl)-5-methyl-2-oxo-oxazolidin-4-ylmethyl ester] | 1660 | 1100 | – |
| C[C@H]1COCCN1c1nc(-c2cnc(N)nc2C(F)(F)F)cc(N2C(=O)OC[C@@H]2C)n1 [Example 13, (S)-3-[2′-Amino-2-((S)-3-methyl-morpholin-4-yl)-4′-trifluoromethyl-[4,5′]bipyrimidinyl-6-yl]-4-methyl-oxazolidin-2-one] | 386 | 1950 | – |
| Nc1ncc(-c2cc(N3C[C@@H](CO)OC3=O)nc(N3CCOCC3)n2)c(C(F)(F)F)n1 [Example 14, (S)-3-(2′-Amino-2-morpholin-4-yl-4′-trifluoromethyl-[4,5′]bipyrimidinyl-6-yl)-5-hydroxymethyl-oxazolidin-2-one] | 1230 | > 2270 | – |

The remaining molecules from weak to strong by IC50 [1], led by results:

| IC50 [1] [nM] | IC50 [2, 3] [nM] | IC50 [2, 4] [nM] | SMILES |
| --- | --- | --- | --- |
| 338 | 727 | > 2270 | C[C@H]1[C@H](CO)OC(=O)N1c1cc(-c2cnc(N)nc2C(F)(F)F)nc(N2CCOCC2)n1 [Example 15, (4S,5R)-3-(2′-Amino-2-morpholin-4-yl-4′-trifluoromethyl-[4,5′]bipyrimidinyl-6-yl)-5-hydroxymethyl-4-methyl-oxazolidin-2-one] |
| 329 | 1410 | – | COC[C@H]1COC(=O)N1c1cc(-c2cnc(N)nc2C(F)(F)F)nc(N2CCOCC2)n1 [Example 5, (S)-3-(2′-Amino-2-morpholin-4-yl-4′-trifluoromethyl-[4,5′]bipyrimidinyl-6-yl)-4-methoxymethyl-oxazolidin-2-one] |
| 290 | 857 | – | C[C@H]1C(CC(C)(C)O)OC(=O)N1c1cc(-c2cnc(N)nc2C(F)(F)F)nc(N2CCOCC2)n1 (mixture of isomers) [Example 26, (4S,5R)- and (4S,5S)-3-(2′-amino-2-morpholino-4′-(trifluoromethyl)-[4,5′-bipyrimidin]-6-yl)-5-(2-hydroxy-2-methylpropyl)-4-methyloxazolidin-2-one] |
| 276 | 964 | – | C[C@H]1COC(=O)N1c1cc(-c2cnc(N)nc2C(F)(F)F)nc(N2CCOCC2)n1 [Example 1, (S)-3-(2′-Amino-2-morpholin-4-yl-4′-trifluoromethyl-[4,5′]bipyrimidinyl-6-yl)-4-methyl-oxazolidin-2-one] |
| 258 | 574 | – | C[C@@H]1OC(=O)N(c2cc(-c3cnc(N)nc3C(F)(F)F)nc(N3CCOCC3)n2)[C@H]1CO [Example 6] |
| 238 | 647 | – | Nc1ncc(-c2cc(N3C(=O)O[C@H]4CCCC[C@@H]43)nc(N3CCOCC3)n2)c(C(F)(F)F)n1 [Example 4, (3aS,7aS)-3-(2′-Amino-2-morpholin-4-yl-4′-trifluoromethyl-[4,5′]bipyrimidinyl-6-yl)-hexahydro-benzooxazol-2-one] |
| 237 | 994 | – | [2H]C1([2H])OC([2H])([2H])C([2H])([2H])N(c2nc(-c3cnc(N)nc3C(F)(F)F)cc(N3C(=O)O[C@H](C)[C@@H]3CO)n2)C1([2H])[2H] [Example 8] |
| 205 | 1830 | – | C[C@H](O)CC1OC(=O)N(c2cc(-c3cnc(N)nc3C(F)(F)F)nc(N3CCOCC3)n2)[C@H]1C (single isomer, unassigned) [Example 25] |
| 145 | 1390 | – | Nc1ncc(-c2cc(N3C(=O)O[C@@H]4[C@@H](O)CC[C@@H]43)nc(N3CCOCC3)n2)c(C(F)(F)F)n1 (racemic) [Example 22, (3aR*,6R*,6aR*)-3-(2′-Amino-2-morpholino-4′-(trifluoromethyl)-[4,5′-bipyrimidin]-6-yl)-6-hydroxyhexahydro-2H-cyclopenta[d]oxazol-2-one] |
| 110 | 2120 | – | Nc1ncc(-c2cc(N3C(=O)OC4C(O)CCC43)nc(N3CCOCC3)n2)c(C(F)(F)F)n1 (single isomer, unassigned) [Example 22A] |
